What all share (type): cell-based, rat
Test [1] concerns AMPAR/NMDAR ratio of EPSCs in VTA dopamine cells. In words: AMPAR/NMDAR ratio after 5-min bath application to VTA slices. The note with it: orexin A 100 nM 5 min, n=8. The protocol: The next study investigated whether orexin signaling in the VTA is required for the long-term plasticity associated with the development of behavioral sensitization. Long-term synaptic plasticity at excitatory synapses on VTA neurons was examined 24 hr after a 5-day treatment of cocaine (15 mg/kg) or saline (0.9%), a time course shown to induce long-lasting locomotor sensitization to cocaine (Thomas et al., 2001), with or without the OXR1 antagonist, SB 334867 (10 mg/kg, FIG. 5). To assay for synaptic plasticity, the relative contributions of AMPARs and NMDARs to EPSCs recorded in VTA dopamine cells were compared. Consistent with the potentiation observed following acute and 7-day cocaine treatments (Borgland et al., 2004), 5-day treatment with cocaine potentiated the AMPAR/NMDAR ratio compared to saline controls (FIG. 5A, saline: 0.4±0.07, n=4; cocaine: 0.8±0.1, n=4, p<0.05). […]
To calculate the AMPAR/NMDAR ratio, an average of 12 EPSCs at +40 mV was computed before and after application of the NMDAR blocker, AP5 (50 μM) for 5 min. NMDAR responses were calculated by subtracting the average response in the presence of AP5 (AMPAR only) from that seen in its absence; the peak of the AMPAR EPSC was divided by the peak of the NMDAR EPSC to yield an AMPAR/NMDAR ratio.

The next test relates to AMPAR-induced current. In words: Holding current change on bath-applied AMPA with cyclothiazide.
Test [2] concerns AMPAR-mediated EPSCs in VTA dopamine neurons. In words: Evoked AMPAR-mediated EPSCs recorded at −70 mV, VTA slices. The note with it: orexin A 100 nM. The protocol:
Excitatory postsynaptic currents (EPSCs) were recorded from VTA neurons in rat midbrain slices. EPSCs were evoked while holding neurons in voltage clamp at +40 mV. Measurements were taken 20 ms after the stimulus artifact, a time point at which the glutamatergic EPSC is mediated purely by NMDARs.
All of the electrophysiological recordings were performed in rats ranging from P21 to P30. Briefly, rats were anesthetized with halothane and sacrificed. Horizontal sections of the VTA ([…]) were prepared with a vibratome (Leica, Nussloch, Germany). Slices were placed in a holding chamber and allowed to recover for at least 1 hour before being placed in the recording chamber and superfused with bicarbonate-buffered solution (ACSF) saturated with 95% O2/5% CO2 and containing (in mM): 119 NaCl, 1.6 KCl, 1.0 NaH2PO4, 1.3 MgCl2, 2.5 CaCl2, 26.2 NaHCO3 and 11 glucose (at 32-34° C.). Picrotoxin (100 μM) was added to block GABAA receptor-mediated inhibitory postsynaptic currents. Cells were visualized using infrared differential interference contrast video microscopy. Whole-cell voltage clamp recordings were made using an Axopatch 1D amplifier (Axon Instruments, Union City, Calif.). […] Series resistance (10-40 MΩ) and input resistance were monitored on-line with a 4-mV depolarizing step (50 ms) given just after every afferent stimulus. […]

The next test concerns NMDAR mEPSCs. In words: NMDAR mEPSCs in Mg2+-free buffer at −40 mV. The protocol:
To examine changes in number or function of NMDARs after orexin treatment NMDAR mEPSCs were recorded in buffer without Mg^2+, and in the presence CNQX (10 μM), glycine (20 μM) and lidocaine (500 μM). Orexin A (100 nM) caused a significant increase in amplitude in NMDAR mEPSCs 15 min after application (17.1±0.7 pA, n=8, FIG. 7B,D,F) compared to untreated neurons (14.2±0.9 pA, n=8, FIG. 7A,D,F) or at 3-4 hours after orexin A application (13.9±0.5 pA, n=7, FIG. 7C,D,F).
AMPAR mEPSCs were recorded in cells voltage-clamped at −70 mV in lidocaine (500 μM), APV (50 μM) and sucrose (100 mM). NMDAR mEPSCs were recorded at −40 mV in Mg2+-free external solution with lidocaine (500 μM), glycine (20 μM), and CNQX (10 μM). mEPSCs were collected using Clampex (Axon Instruments) and analyzed using Mini Analysis Program (Synaptosoft). Detection criteria were set at >10 pA, <1 ms rise-time, and <3 ms decay-time for AMPAR mEPSCs and >10 pA, <1 ms rise-time, and <10 ms decay-time for NMDAR mEPSCs. mEPSC traces were recorded while sampling every 10 μs, the images were filtered at 5 kHz. Averaged mEPSCs were constructed using Mini Analysis Program (Synaptosoft).

Where no end group is shown, it is not given here.

Regarding “orexin A: neuropeptide synthesized in neurons of the LH; orexin receptor agonist selective for the OXR1 receptor (QPLPDCCRQKTCSCRLYELLHGAGNHAAGILTL; ends and bridges not checked; cysteine pairing not given here; UniProt O43612 34-66, looked up)”, the figures for the AMPAR/NMDAR ratio in test [1] (15 min after treatment) and in test [1] (after 3-4 hours) were 0.29±0.04 and 0.75±0.1, respectively. The AMPAR-induced current in the test with AMPAR-induced current (AMPA 2 μM 30 sec + cyclothiazide 100 μM, 15 min after orexin A 100 nM, n=5) is reported as −243±79 pA; with AMPAR-induced current (AMPA 2 μM + cyclothiazide, 3-4 hours after orexin A 100 nM, n=6), −367±63 pA. The “change of AMPAR-mediated EPSCs” value is on record as “not changed” in test [2] (n=8) and “does not increase” in test [2] (n=8, listed as Orexin A). For the same substance, the “frequency of NMDAR mEPSCs” value amounted to 2.5±0.4 in the test on NMDAR mEPSCs (3-4 hours after orexin A) and 2.1±0.3 with NMDAR mEPSCs (15 min after orexin A). Moreover, the “NMDAR mEPSC amplitude” value in the test with NMDAR mEPSCs (3-4 hours after orexin A, n=7) came to 13.9±0.5 pA; with NMDAR mEPSCs (15 min after orexin A 100 nM, n=8) it was 17.1±0.7 pA.
